Among the data in US20050010048A1 (published 2005) are melting point values, retold here.

One may read the melting point as the temperature, or range, at which the solid turns liquid.

Where a name gives a salt, the structure may show the parent alone.

As for `Cc1cc(C(=O)c2cccc(Cc3ccccc3)c2)c(O)c2ncccc12`, the melting point was 123 to 124 °C.

In turn, `O=C(c1cc(Cc2ccccc2)cc(Cn2ccnc2)c1)c1cc(Cl)c2cccnc2c1O` (as salt: TFA) registered a melting point of 148 to 150 °C.
